Columns and labels:
[1] = tested on: Anopheles stephensi (Organophosphate Resistant) ST Mal larvae; experiment: WHO standard larval bioassay; assay type: in vivo; settings: Example 2, An. Stephensi OP Resistant, 10% working dilution in ethanol (mixture 5%+5%), 24 hours
[2] = tested on: Aedes albopictus (susceptible) Albo larvae; experiment: WHO standard larval bioassay; assay type: in vivo; settings: Example 2, Ae. albopictus Susceptible, 10% working dilution in ethanol (mixture 5%+5%), 24 hours
[3] = tested on: Anopheles gambiae (DDT resistant) ZANDS larvae; experiment: WHO standard larval bioassay; assay type: in vivo; settings: Example 2, An. Gambiae DDT Resistant, 10% working dilution in ethanol (mixture 5%+5%), 24 hours
[4] = tested on: Anopheles stephensi (susceptible) Beech larvae; experiment: WHO standard larval bioassay; assay type: in vivo; settings: Example 2, An. Stephensi Susceptible, 10% working dilution in ethanol (mixture 5%+5%), 24 hours
[5] = tested on: Culex quinquefasciatus (susceptible) Muheza larvae; experiment: WHO standard larval bioassay; assay type: in vivo; settings: Example 2, Cx. quinquefasciatus Susceptible, 10% working dilution in ethanol (mixture 5%+5%), 24 hours
[6] = tested on: Culex pipiens pipiens (susceptible) Pip larvae; experiment: WHO standard larval bioassay; assay type: in vivo; settings: Example 2, Cx. pipiens Susceptible, 10% working dilution in ethanol (mixture 5%+5%), 24 hours
[7] = tested on: Anopheles albimanus (susceptible) Mexico larvae; experiment: WHO standard larval bioassay; assay type: in vivo; settings: Example 2, An. Albimanus Susceptible, 10% working dilution in ethanol (mixture 5%+5%), 24 hours
[8] = tested on: range of mosquito species (larvae); experiment: WHO standard larval bioassay, summary over all strains; assay type: in vivo, Anopheles, Aedes, Culex; settings: Example 2, LD90 similar in susceptible and resistant strains
[9] = tested on: Aedes aegypti (susceptible) AeAe larvae; experiment: WHO standard larval bioassay; assay type: in vivo; settings: Example 2, Ae. Aegypti Susceptible, 10% working dilution in ethanol (mixture 5%+5%), 24 hours
[10] = tested on: Anopheles gambiae (Pyrethroid Resistant) VKPR larvae; experiment: WHO standard larval bioassay; assay type: in vivo; settings: Example 2, An. Gambiae Py. Resistant, 10% working dilution in ethanol (mixture 5%+5%), 24 hours
[11] = tested on: Anopheles albimanus (Carbamate Resistant) FEST larvae; experiment: WHO standard larval bioassay; assay type: in vivo; settings: Example 2, An. albimanus Carbamate Resistant, 10% working dilution in ethanol (mixture 5%+5%), 24 hours
[12] = tested on: Anopheles gambiae (susceptible) KWA larvae; experiment: WHO standard larval bioassay; assay type: in vivo; settings: Example 2, An. Gambiae Susceptible, 10% working dilution in ethanol (mixture 5%+5%), 24 hours

Row | Compound | LD90 [1] [mL] | LD90 [2] [mL] | LD90 [3] [mL] | LD90 [4] [mL] | LD90 [5] [mL] | LD90 [6] [mL] | LD90 [7] [mL] | cross resistance to existing insecticide classes (pyrethroids/OP's/Carbamates/Organochlorines) [8] | LD90 [9] [mL] | LD90 [10] [mL] | LD90 [11] [mL] | LD90 [12] [mL]
1 | Cc1ccc(C(C)C)c(O)c1 [Thymol] | 0.177 | 0.172 | 0.235 | 0.112 | 0.330 | 0.135 | 0.115 | no evidence of cross resistance | 0.302 | 0.261 | 0.224 | 0.177
2 | Cc1ccc(C(C)C)cc1 [p-Cymene, p-cymene] | 0.134 | 0.150 | 0.204 | 0.085 | 0.215 | 0.120 | 0.088 | no evidence of cross resistance | 0.198 | 0.202 | 0.191 | 0.140

From patent US20090036547A1 (priority 2005, published 2009)
